Experimental data taken from patent US20230081720A1, “MCL-1 INHIBITOR ANTIBODY-DRUG CONJUGATES AND METHODS OF USE” (NOVARTIS AG, priority 2019, published 2023).
Where a name gives a salt, the structure may show the parent alone. Read-outs that look alike come from different tables or passages of the source.

What was measured:
NOMO-1 = assay type: cell-based
Protocol: (§1) Cell lines were cultured in media that is optimal for their growth at 5% CO2, 37° C. in a tissue culture incubator. Prior to seeding for the proliferation assay, the cells were split at least 2 days before the assay to ensure optimal growth density. […] Cell viability and cell density were determined using a cell counter (Vi-Cell XR Cell Viability Analyzer, Beckman Coulter). […] Cells were seeded at a density of 1,000 cells per well in 45 μL of standard growth media. Plates were incubated at 5% CO2, 37° C. overnight in a tissue culture incubator. […] Each drug concentration was tested in quadruplets. […] Plates were incubated at room temperature for 10 minutes to stabilize luminescent signals prior to reading using a luminescence reader (EnVision Multilabel Plate Reader, PerkinElmer). To evaluate the effect of the drug treatments, luminescent counts from wells containing untreated cells (100% viability) were used to normalize treated samples.

EOL-1 = assay type: cell-based
Protocol: as §1

[1] = CD74 ADC with the named linker-payload, 5 days
[2] = CD74 ADC with the named linker-payload, 5 days, read-out: NOMO-1 IC50
[3] = CD74 ADC with the named linker-payload, 5 days, read-out: EOL-1 IC50

Compound | NOMO-1 Amax (NOMO-1; [1]) | IC50 (NOMO-1; [2]) | EOL-1 Amax (EOL-1; [1]) | IC50 (EOL-1; [3]) | IC50 (NOMO-1) | IC50 (EOL-1)
COc1ccccc1-c1nccc(COc2ccccc2C[C@@H](Oc2ncnc3sc(-c4ccc(F)cc4)c(-c4ccc(OCCN5CC[N+](C)(Cc6ccc(NC(=O)[C@H](CCCNC(N)=O)NC(=O)[C@@H](NC(=O)CCOCCN7C(=O)C=CC7=O)C(C)C)cc6COCc6cn(CCOC(=O)NS(=O)(=O)NCCOCCOCCO[C@@H]7O[C@H](CO)[C@@H](O)[C@H](O)[C@H]7O)nn6)CC5)c(Cl)c4C)c23)C(=O)O)n1 [L62-P1, trifluoroacetate] | 65.18 | 3.41 nM | 83.03 | 0.771 nM | – | –
COc1ccccc1-c1nccc(COc2ccccc2C[C@@H](Oc2ncnc3sc(-c4ccc(F)cc4)c(-c4ccc(OCCN5CC[N+](C)(Cc6ccc(NC(=O)[C@H](CCCNC(N)=O)NC(=O)[C@@H](NC(=O)CCOCCN7C(=O)C=CC7=O)C(C)C)cc6CN(C)C(=O)C[C@H](NC(=O)OC6O[C@H](C(=O)O)[C@@H](O)[C@H](O)[C@H]6O)C(=O)O)CC5)c(Cl)c4C)c23)C(=O)O)n1 (stereo partly drawn) [L69-P1] | 95.03 | 14.8 nM | 159.6 | 0.704 nM | – | –
COc1ccccc1-c1nccc(COc2ccccc2C[C@@H](Oc2ncnc3sc(-c4ccc(F)cc4)c(-c4ccc(OCCN5CC[N+](C)(Cc6ccc(NC(=O)[C@H](CCCNC(N)=O)NC(=O)[C@@H](NC(=O)CCOCCN7C(=O)C=CC7=O)C(C)C)cc6CN(C)C(=O)C[C@H](NC(=O)[C@@H]6O[C@H](O)[C@@H](O)[C@H](O)[C@H]6O)C(=O)O)CC5)c(Cl)c4C)c23)C(=O)O)n1 [L68-P1] | 91.25 | 6.91 nM | 127.3 | 0.788 nM | – | –
COc1ccccc1-c1nccc(COc2ccccc2C[C@@H](Oc2ncnc3sc(-c4ccc(F)cc4)c(-c4ccc(OCCN5CC[N+](C)(Cc6ccc(NC(=O)[C@H](CCCNC(N)=O)NC(=O)[C@@H](NC(=O)CCOCCN7C(=O)C=CC7=O)C(C)C)cc6CN(C)C(=O)[C@H](CCCCNC(=O)CS(=O)(=O)O)NC(=O)CS(=O)(=O)O)CC5)c(Cl)c4C)c23)C(=O)O)n1 [L78-P1, 4-(2-(4-(4-((R)-1-carboxy-2-(2-((2-(2-methoxyphenyl)pyrimidin-4-yl)methoxy)phenyl)ethoxy)-6-(4-fluorophenyl)thieno[2,3-d]pyrimidin-5-yl)-2-chloro-3-methylphenoxy)ethyl)-1-(4-((S)-2-((S)-2-(3-(2-(2,5-dioxo-2,5-dihydro-1H-pyrrol-1-yl)ethoxy)propanamido)-3-methylbutanamido)-5-ureidopentanamido)-2-(((S)-N-methyl-2,6-bis(2-sulfoacetamido)hexanamido)methyl)benzyl)-1-methylpiperazin-1-ium] | 53.4 | 3.73 nM | 87.22 | 0.43 nM | – | –
COCCOCCOCCOCCOCCOCCOCCOCCOCCOCCOCCOCCC(=O)N[C@@H](CCC(=O)O)C(=O)N(C)Cc1cc(NC(=O)[C@H](CCCNC(N)=O)NC(=O)[C@@H](NC(=O)CCOCCN2C(=O)C=CC2=O)C(C)C)ccc1C[N+]1(C)CCN(CCOc2ccc(-c3c(-c4ccc(F)cc4)sc4ncnc(O[C@H](Cc5ccccc5OCc5ccnc(-c6ccccc6OC)n5)C(=O)O)c34)c(C)c2Cl)CC1 [L72-P1] | 57.68 | – | 109.8 | 0.386 nM | – | –
COc1ccccc1-c1nccc(COc2ccccc2C[C@@H](Oc2ncnc3sc(-c4ccc(F)cc4)c(-c4ccc(OCCN5CC[N+](C)(Cc6ccc(NC(=O)[C@H](CCCNC(N)=O)NC(=O)[C@@H](NC(=O)CCOCCN7C(=O)C=CC7=O)C(C)C)cc6CN(C)C(=O)[C@H](N)CS(=O)(=O)O)CC5)c(Cl)c4C)c23)C(=O)O)n1 [L86-P1] | 74.52 | – | 105.5 | – | 7.47 nM | 0.721 nM
COc1ccccc1-c1nccc(COc2ccccc2C[C@@H](Oc2ncnc3sc(-c4ccc(F)cc4)c(-c4ccc(OCCN5CC[N+](C)(Cc6ccc(NC(=O)[C@H](CCCNC(N)=O)NC(=O)[C@@H](NC(=O)CCOCCN7C(=O)C=CC7=O)C(C)C)cc6CN(C)C(=O)[C@H](CCC(=O)O)NC(=O)CS(=O)(=O)O)CC5)c(Cl)c4C)c23)C(=O)O)n1 [L71-P1, 4-(2-(4-(4-((R)-1-carboxy-2-(2-((2-(2-methoxyphenyl)pyrimidin-4-yl)methoxy)phenyl)ethoxy)-6-(4-fluorophenyl)thieno[2,3-d]pyrimidin-5-yl)-2-chloro-3-methylphenoxy)ethyl)-1-(2-(((S)-4-carboxy-N-methyl-2-(2-sulfoacetamido)butanamido)methyl)-4-((S)-2-((S)-2-(3-(2-(2,5-dioxo-2,5-dihydro-1H-pyrrol-1-yl)ethoxy)propanamido)-3-methylbutanamido)-5-ureidopentanamido)benzyl)-1-methylpiperazin-1-ium] | 53.62 | 9.82 nM | 93.09 | 0.341 nM | – | –
COc1ccccc1-c1nccc(COc2ccccc2C[C@@H](Oc2ncnc3sc(-c4ccc(F)cc4)c(-c4ccc(OCCN5CC[N+](C)(Cc6ccc(NC(=O)[C@H](CCCNC(N)=O)NC(=O)[C@@H](NC(=O)CCOCCN7C(=O)C=CC7=O)C(C)C)cc6COCc6cn(CCOC(=O)NS(=O)(=O)NCCOCCO[C@@H]7O[C@H](CO)[C@@H](O)[C@H](O)[C@H]7O)nn6)CC5)c(Cl)c4C)c23)C(=O)O)n1 [L63-P1, trifluoroacetate] | 61.25 | 0.714 nM | – | – | – | –
COc1ccccc1-c1nccc(COc2ccccc2C[C@@H](Oc2ncnc3sc(-c4ccc(F)cc4)c(-c4ccc(OCCN5CC[N+](C)(Cc6ccc(NC(=O)[C@H](CCCNC(N)=O)NC(=O)[C@@H](NC(=O)CCOCCN7C(=O)C=CC7=O)C(C)C)cc6COCc6cn(CCOC(=O)NS(=O)(=O)NCCOCCOCCOCCC(=O)O)nn6)CC5)c(Cl)c4C)c23)C(=O)O)n1 [L60-P1, trifluoroacetate] | 76.94 | 2.62 nM | 79.04 | 0.535 nM | – | –
COc1ccccc1-c1nccc(COc2ccccc2C[C@@H](Oc2ncnc3sc(-c4ccc(F)cc4)c(-c4ccc(OCCN5CC[N+](C)(Cc6ccc(NC(=O)[C@H](CCCNC(N)=O)NC(=O)[C@@H](NC(=O)CCOCCN7C(=O)C=CC7=O)C(C)C)cc6CN(C)C(=O)CN(CC(=O)O)CC(=O)O)CC5)c(Cl)c4C)c23)C(=O)O)n1 [L67-P1, 1-(2-((2-(bis(carboxymethyl)amino)-N-methylacetamido)methyl)-4-((S)-2-((S)-2-(3-(2-(2,5-dioxo-2,5-dihydro-1H-pyrrol-1-yl)ethoxy)propanamido)-3-methylbutanamido)-5-ureidopentanamido)benzyl)-4-(2-(4-(4-((R)-1-carboxy-2-(2-((2-(2-methoxyphenyl)pyrimidin-4-yl)methoxy)phenyl)ethoxy)-6-(4-fluorophenyl)thieno[2,3-d]pyrimidin-5-yl)-2-chloro-3-methylphenoxy)ethyl)-1-methylpiperazin-1-ium] | 79.39 | – | 119.3 | – | 2.49 nM | 0.261 nM
COc1ccccc1-c1nccc(COc2ccccc2C[C@@H](Oc2ncnc3sc(-c4ccc(F)cc4)c(-c4ccc(OCCN5CC[N+](C)(Cc6ccc(NC(=O)[C@H](CCCNC(N)=O)NC(=O)[C@@H](NC(=O)CCOCCN7C(=O)C=CC7=O)C(C)C)cc6CN(C)C(=O)C[C@H](NC(=O)CS(=O)(=O)O)C(=O)O)CC5)c(Cl)c4C)c23)C(=O)O)n1 [L79-P1, 4-(2-(4-(4-((R)-1-carboxy-2-(2-((2-(2-methoxyphenyl)pyrimidin-4-yl)methoxy)phenyl)ethoxy)-6-(4-fluorophenyl)thieno[2,3-d]pyrimidin-5-yl)-2-chloro-3-methylphenoxy)ethyl)-1-(2-(((S)-3-carboxy-N-methyl-3-(2-sulfoacetamido)propanamido)methyl)-4-((S)-2-((S)-2-(3-(2-(2,5-dioxo-2,5-dihydro-1H-pyrrol-1-yl)ethoxy)propanamido)-3-methylbutanamido)-5-ureidopentanamido)benzyl)-1-methylpiperazin-1-ium] | 56.07 | – | 91.3 | – | 3.14 nM | 0.492 nM
COc1ccccc1-c1nccc(COc2ccccc2C[C@@H](Oc2ncnc3sc(-c4ccc(F)cc4)c(-c4ccc(OCCN5CC[N+](C)(Cc6ccc(NC(=O)[C@H](CCCNC(N)=O)NC(=O)[C@@H](NC(=O)CCOCCN7C(=O)C=CC7=O)C(C)C)cc6CN(C)C(=O)CN(C)C(=O)CN(C)C(=O)CN(C)C(=O)CN(C)C(=O)CN(C)C(=O)CN(C)C(=O)CN(C)C(=O)CN(C)C(=O)CN(C)C(=O)CN(C)C(=O)CN(C)C(=O)CN(C)C(=O)CCC(=O)O)CC5)c(Cl)c4C)c23)C(=O)O)n1 [L35-P1] | 62.73 | – | 75.56 | – | 6.9 nM | 0.894 nM
